Experimental data reported in ChEMBL document CHEMBL1149623, “Identification of antibacterial and antiviral activities of novel fused 1,2,4-triazine esters” (2007).

Legend:
[1] = Cytotoxicity against monkey GMK cells at 5 ug/mL after 120 hrs by MTT assay; format: functional, Chlorocebus aethiops
[2] = tested on: HEK293; experiment: Cytotoxicity against human HEK293 cells at 2.5 ug/mL after 72 hrs by MTT assay; format: functional
[3] = Cytotoxicity against monkey GMK cells at 100 ug/mL after 120 hrs by MTT assay; format: functional, Chlorocebus aethiops
[4] = tested on: HEK293; experiment: Cytotoxicity against human HEK293 cells at 100 ug/mL after 120 hrs by MTT assay; format: functional
[5] = tested on: Escherichia coli; experiment: Antibacterial activity against Escherichia coli ATCC 25922 at 100 mg/mL after 24 hrs by disc diffusion method; format: functional
[6] = Cytotoxicity against monkey GMK cells at 50 ug/mL after 48 hrs by MTT assay; format: functional, Chlorocebus aethiops
[7] = tested on: HEK293; experiment: Cytotoxicity against human HEK293 cells at 200 ug/mL after 72 hrs by MTT assay; format: functional
[8] = tested on: HEK293; experiment: Cytotoxicity against human HEK293 cells at 5 ug/mL after 48 hrs by MTT assay; format: functional
[9] = Cytotoxicity against monkey GMK cells at 2.5 ug/mL after 72 hrs by MTT assay; format: functional, Chlorocebus aethiops
[10] = tested on: HEK293; experiment: Cytotoxicity against human HEK293 cells at 100 ug/mL after 48 hrs by MTT assay; format: functional
[11] = Cytotoxicity against monkey GMK cells at 50 ug/mL after 120 hrs by MTT assay; format: functional, Chlorocebus aethiops
[12] = Cytotoxicity against monkey GMK cells at 25 ug/mL after 48 hrs by MTT assay; format: functional, Chlorocebus aethiops
[13] = Cytotoxicity against monkey GMK cells at 5 ug/mL after 96 hrs by MTT assay; format: functional, Chlorocebus aethiops
[14] = tested on: Staphylococcus aureus; experiment: Antibacterial activity against Staphylococcus aureus ATCC 25923 at 100 mg/mL after 24 hrs by disc diffusion method; format: functional
[15] = tested on: Staphylococcus epidermidis; experiment: Antibacterial activity against Staphylococcus epidermidis at 100 mg/mL after 24 hrs by disc diffusion method; format: functional
[16] = tested on: HEK293; experiment: Cytotoxicity against human HEK293 cells at 200 ug/mL after 24 hrs by MTT assay; format: functional
[17] = tested on: Streptococcus pyogenes; experiment: Antibacterial activity against Streptococcus pyogenes at 100 mg/mL after 24 hrs by disc diffusion method; format: functional
[18] = tested on: HEK293; experiment: Cytotoxicity against human HEK293 cells at 5 ug/mL after 24 hrs by MTT assay; format: functional
[19] = tested on: Human adenovirus 5; experiment: Antiviral activity against Human adenovirus 5 in HEK293 cells assessed as inhibition of virus titre at 200 ug/mL after 24 hrs by CPE method; format: functional; conditions: Human mastadenovirus C, HEK293, 24 h
[20] = tested on: HEK293; experiment: Cytotoxicity against human HEK293 cells at 5 ug/mL after 120 hrs by MTT assay; format: functional
[21] = tested on: HEK293; experiment: Cytotoxicity against human HEK293 cells at 100 ug/mL after 96 hrs by MTT assay; format: functional
[22] = Cytotoxicity against monkey GMK cells at 25 ug/mL after 120 hrs by MTT assay; format: functional, Chlorocebus aethiops
[23] = tested on: Echovirus E9; experiment: Antiviral activity against Human echovirus 9 in GMK cells assessed as inhibition of virus titre at 100 ug/mL after 24 hrs by CPE method; format: functional; conditions: Enterovirus B
[24] = Cytotoxicity against monkey GMK cells at 200 ug/mL after 120 hrs by MTT assay; format: functional, Chlorocebus aethiops
[25] = tested on: HEK293; experiment: Cytotoxicity against human HEK293 cells at 50 ug/mL after 96 hrs by MTT assay; format: functional
[26] = tested on: Human adenovirus 5; experiment: Antiviral activity against Human adenovirus 5 in HEK293 cells assessed as inhibition of virus titre at 100 ug/mL after 24 hrs by CPE method; format: functional; conditions: Human mastadenovirus C, HEK293, 24 h
[27] = tested on: Human adenovirus 5; experiment: Antiviral activity against Human adenovirus 5 in HEK293 cells assessed as inhibition of virus titre at 50 ug/mL after 24 hrs by CPE method; format: functional; conditions: Human mastadenovirus C, HEK293, 24 h
[28] = tested on: Echovirus E9; experiment: Antiviral activity against Human echovirus 9 in GMK cells assessed as inhibition of virus titre at 50 ug/mL after 24 hrs by CPE method; format: functional; conditions: Enterovirus B
[29] = tested on: Echovirus E9; experiment: Antiviral activity against Human echovirus 9 in GMK cells assessed as inhibition of virus titre at 200 ug/mL after 24 hrs by CPE method; format: functional; conditions: Enterovirus B

Structure (SMILES)	Activity [1] [%]	Activity [2] [%]	Activity [3] [%]	Activity [4] [%]	Inhibition [5] [mm]	Activity [6] [%]	Activity [7] [%]	Activity [8] [%]	Activity [9] [%]	Activity [10] [%]	Activity [11] [%]	Activity [12] [%]	Activity [13] [%]	Activity [16] [%]	Activity [18] [%]	Activity [20] [%]	Activity [21] [%]	Activity [22] [%]	Activity [24] [%]	Activity [25] [%]	also measured
COC(=O)CC1NN=C2N(CCN2c2cccc(Cl)c2)C1=O (configuration not stated)	100	100	0	50	>20	95	35	100	100	50	90	100	100	98	100	100	50	95	0	90	Inhibition [14]: 16 mm; Inhibition [15]: 16 mm; Inhibition [17]: 10 mm; inhibition at 200 µg/mL [19]: 8%; inhibition at 100 µg/mL [23]: 9.9%
CCOC(=O)CC1NN=C2N(CCN2c2ccc(C)cc2)C1=O (configuration not stated)	100	100	70	70		80	15	100	100	80	70	90	100	30	100	100	70	70	0	70	inhibition at 100 µg/mL [26]: 23%; inhibition at 200 µg/mL [19]: 23%; inhibition at 50 µg/mL [27]: 23%
CCOC(=O)CC1NN=C2N(CCN2c2ccc(Cl)cc2)C1=O (configuration not stated)	100	100	100	50	10	100	25	100	100	90	100	100	100	50	100	100	70	100	95	100	inhibition at 50 µg/mL [28]: 9.4%; Inhibition [14]: <9 mm; Inhibition [15]: 16 mm; inhibition at 200 µg/mL [29]: 25%; Inhibition [17]: >20 mm
